{
  "source": "patent US8748426B2",
  "about": "“Inhibitors of diacylglycerol acyl transferase” (Piramal Enterprises Limited, priority 2009, dated 2014)",
  "data": [
    {"molecular_target": "T1, hDGAT1 (Homo sapiens, UniProt O75907)", "T1 sequence (O75907 1-488)": "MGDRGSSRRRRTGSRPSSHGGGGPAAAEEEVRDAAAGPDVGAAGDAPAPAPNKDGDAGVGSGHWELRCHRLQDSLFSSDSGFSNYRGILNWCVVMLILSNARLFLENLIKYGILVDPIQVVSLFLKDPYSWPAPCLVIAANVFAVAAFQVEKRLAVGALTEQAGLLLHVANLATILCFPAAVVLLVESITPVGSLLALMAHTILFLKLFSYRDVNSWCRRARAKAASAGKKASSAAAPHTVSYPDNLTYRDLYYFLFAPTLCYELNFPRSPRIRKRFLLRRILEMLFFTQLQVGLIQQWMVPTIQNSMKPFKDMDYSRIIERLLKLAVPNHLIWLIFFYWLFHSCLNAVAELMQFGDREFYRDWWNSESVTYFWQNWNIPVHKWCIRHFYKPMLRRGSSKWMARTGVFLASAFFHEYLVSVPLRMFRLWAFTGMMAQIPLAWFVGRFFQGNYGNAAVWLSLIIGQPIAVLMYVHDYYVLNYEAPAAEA", "test": "In-vitro DGAT1 assay (14C oleoyl CoA, hDGAT1 microsomes from Sf9 cells)", "details": "at 1 μM", "values": [
      {"smiles": "Cc1ccc(C(=O)Nc2ccc(-c3ccc4c(c3)C(=O)N(C35C[C@@H]6C[C@@H](CC(C(=O)O)(C6)C3)C5)C4)cc2)cc1", "note": "[Example 572, (1r,3s,5R,7S)-3-(6-(4-(4-Methylbenzamido)phenyl)-1-oxoisoindolin-2-yl)adamantane-1-carboxylic acid]", "% Inhibition of hDGAT1": "++ (>50% Inhibition)"}
    ]},
    {"molecular_target": "T1, hDGAT1", "test": "In-vitro DGAT1 assay (14C oleoyl CoA, hDGAT1 microsomes from Sf9 cells)", "details": "read-out: % Inhibition of hDGAT1", "units": {"inhibition at 1 µM": "%"}, "values": [
      {"smiles": "CC(C)[C@@H](C(=O)O)N1Cc2ccc(-c3ccc(NC(=O)Nc4ccc5c(c4)CCC5)c(F)c3)cc2C1=O", "note": "[Example 438, (S)-2-(6-(4-(3-(2,3-Dihydro-1H-inden-5-yl)ureido)-3-fluorophenyl)-1-oxoisoindolin-2-yl)-3-methylbutanoic acid]", "inhibition at 1 µM": "> 50"},
      {"smiles": "Cc1ccc(NC(=S)Nc2ccc(-c3ccc4c(c3)CN([C@H](C(=O)O)C(C)C)C4=O)cc2)cc1", "note": "[Example 275, (S)-3-Methyl-2-(1-oxo-5-(4-(3-p-tolylthioureido)phenyl)isoindolin-2-yl)butanoic acid]", "inhibition at 1 µM": "10 to 50"},
      {"smiles": "CC(C)[C@@H](C(=O)O)N1Cc2ccc(-c3ccc(NS(=O)(=O)c4ccc(F)cc4F)cc3)cc2C1=O", "note": "[Example 84, (S)-2-(6-(4-(2,4-Difluorophenylsulfonamido)phenyl)-1-oxoisoindolin-2-yl)-3-methylbutanoic acid]", "inhibition at 1 µM": "10 to 50"},
      {"smiles": "CC(C)[C@@H](C(=O)O)N1Cc2ccc(-c3ccc(NC(=O)Nc4ccc(Cl)cc4Oc4ccccc4)cn3)cc2C1=O", "note": "[Example 396, (S)-2-(6-(5-(3-(4-Chloro-2-phenoxyphenyl)ureido)pyridin-2-yl)-1-oxoisoindolin-2-yl)-3-methylbutanoic acid]", "inhibition at 1 µM": "> 50"},
      {"smiles": "CC(C)[C@@H](C(=O)O)N1Cc2ccc(-c3ccc(NC(=S)Nc4cccc(F)c4)cc3)cc2C1=O", "note": "[Example 56, (S)-2-(6-(4-(3-(3-Fluorophenyl)thioureido)phenyl)-1-oxoisoindolin-2-yl)-3-methylbutanoic acid]", "inhibition at 1 µM": "10 to 50"},
      {"smiles": "COc1ccc(S(=O)(=O)Nc2ccc(-c3ccc4c(c3)C(=O)N([C@H](C(=O)O)C(C)C)C4)cc2)cc1OC", "note": "[Example 86, (S)-2-(6-(4-(3,4-Dimethoxyphenylsulfonamido)phenyl)-1-oxoisoindolin-2-yl)-3-methylbutanoic acid]", "inhibition at 1 µM": "10 to 50"},
      {"smiles": "CCCCCc1ccc(C(=O)Nc2ccc(-c3ccc4c(c3)C(=O)N([C@H](C(=O)O)C(C)C)C4)c(C)c2)cc1", "note": "[Example 474, (S)-3-Methyl-2-(6-(2-methyl-4-(4-pentylbenzamido)phenyl)-1-oxoisoindolin-2-yl)butanoic acid]", "inhibition at 1 µM": "> 50"},
      {"smiles": "CCCCOc1ccc(C(=O)Nc2ccc(-c3ccc4c(c3)C(=O)N([C@H](C(=O)O)C(C)C)C4)c(C)c2)cc1", "note": "[Example 472, (S)-2-(6-(4-(4-Butoxybenzamido)-2-methylphenyl)-1-oxoisoindolin-2-yl)-3-methylbutanoic acid]", "inhibition at 1 µM": "> 50"},
      {"smiles": "COC[C@@H](C(=O)O)N1Cc2cc(-c3ccc(NC(=O)Nc4cccc(C(F)(F)F)c4)cc3)ccc2C1=O", "note": "[Example 385, (S)-3-Methoxy-2-(1-oxo-5-(4-(3-(3-(trifluoromethyl)phenyl)ureido)phenyl)isoindolin-2-yl)propanoic acid]", "inhibition at 1 µM": "10 to 50"},
      {"smiles": "CC(C)[C@@H](C(=O)O)N1Cc2cc(-c3ccc(NC(=O)c4ccc(Cl)cc4)cc3)ccc2C1=O", "note": "[Example 321, (S)-2-(5-(4-(4-Chlorobenzamido)phenyl)-1-oxoisoindolin-2-yl)-3-methylbutanoic acid]", "inhibition at 1 µM": "> 50"},
      {"smiles": "CC(C)(C(=O)O)N1Cc2ccc(-c3ccc(NC(=O)c4ccc(OC(F)(F)F)cc4)cc3)cc2C1=O", "note": "[Example 523, 2-Methyl-2-(1-oxo-6-(4-(4-(trifluoromethoxy)benzamido)phenyl)isoindolin-2-yl)propanoic acid]", "inhibition at 1 µM": "10 to 50"},
      {"smiles": "C[C@@H](C(=O)O)N1Cc2ccc(-c3ccc(NC(=O)Nc4cccc(C(F)(F)F)c4)cc3)cc2C1=O", "note": "[Example 337, (S)-2-(1-Oxo-6-(4-(3-(3-(trifluoromethyl)phenyl)ureido)phenyl)isoindolin-2-yl)propanoic acid]", "inhibition at 1 µM": "> 50"},
      {"smiles": "CC(C)[C@@H](C(=O)O)N1Cc2ccc(-c3ccc(NC(=O)c4ccc(OC(F)(F)F)cc4)cc3F)cc2C1=O", "note": "[Example 608, (S)-2-(6-(2-Fluoro-4-(4-(trifluoromethoxy)benzamido)phenyl)-1-oxoisoindolin-2-yl)-3-methylbutanoic acid]", "inhibition at 1 µM": "> 50"},
      {"smiles": "CC(C)[C@@H](C(=O)O)N1Cc2ccc(-c3ccc(NC(=S)Nc4ccccc4F)cc3)cc2C1=O", "note": "[Example 52, (S)-2-(6-(4-(3-(2-Fluorophenyl)thioureido)phenyl)-1-oxoisoindolin-2-yl)-3-methylbutanoic acid]", "inhibition at 1 µM": "10 to 50"},
      {"smiles": "CC(C)[C@@H](C(=O)O)N1Cc2ccc(-c3ccc(NC(=O)c4ccc(C(C)(C)C)cc4)cc3F)cc2C1=O", "note": "[Example 604, (S)-2-(6-(4-(4-(tert-Butyl)benzamido)-2-fluorophenyl)-1-oxoisoindolin-2-yl)-3-methylbutanoic acid]", "inhibition at 1 µM": "> 50"},
      {"smiles": "CC(C)[C@@H](C(=O)O)N1Cc2cc(-c3ccc(NS(=O)(=O)Cc4ccccc4)cc3)ccc2C1=O", "note": "[Example 301, (S)-3-Methyl-2-(1-oxo-5-(4-(phenylmethylsulfonamido)phenyl)isoindolin-2-yl)butanoic acid]", "inhibition at 1 µM": "10 to 50"},
      {"smiles": "CC(C)[C@@H](C(=O)O)N1Cc2ccc(-c3ccc(NC(=O)c4ccc(C(C)(C)C)cc4)c(F)c3)cc2C1=O", "note": "[Example 444, (S)-2-(6-(4-(4-tert-Butylbenzamido)-3-fluorophenyl)-1-oxoisoindolin-2-yl)-3-methylbutanoic acid]", "inhibition at 1 µM": "> 50"},
      {"smiles": "CC(C)[C@@H](C(=O)O)N1Cc2ccc(-c3ccc(NC(=O)c4ccc5c(c4)OCO5)cc3)cc2C1=O", "note": "[Example 128, (S)-2-(6-(4-(Benzo[d][1,3]dioxole-5-carboxamido)phenyl)-1-oxoisoindolin-2-yl)-3-methylbutanoic acid]", "inhibition at 1 µM": "> 50"},
      {"smiles": "CC(C)[C@@H](C(=O)O)N1Cc2cc(-c3ccc(NC(=O)Nc4cccc(F)c4)cc3)ccc2C1=O", "note": "[Example 229, (S)-2-(5-(4-(3-(3-Fluorophenyl)ureido)phenyl)-1-oxoisoindolin-2-yl)-3-methyl butanoic acid]", "inhibition at 1 µM": "> 50"},
      {"smiles": "CC(C)[C@@H](C(=O)O)N1Cc2ccc(-c3ccc(NC(=O)c4ccc(N5CCCCC5)nc4)cc3)cc2C1=O", "note": "[Example 215, (S)-3-Methyl-2-(1-oxo-6-(4-(6-(piperidin-1-yl)nicotinamido)phenyl)isoindolin-2-yl)butanoic acid]", "inhibition at 1 µM": "> 50"},
      {"smiles": "CC(C)[C@@H](C(=O)O)N1Cc2ccc(-c3ccc(NS(=O)(=O)c4ccc(C(F)(F)F)cc4)cc3)cc2C1=O", "note": "[Example 92, (S)-3-Methyl-2-(1-oxo-6-(4-(4-(trifluoromethyl)phenylsulfonamido)phenyl)isoindolin-2-yl)butanoic acid]", "inhibition at 1 µM": "10 to 50"},
      {"smiles": "CC(C)[C@@H](C(=O)O)N1Cc2ccc(-c3ccc(NC(=O)c4nc(-c5ccccc5)cs4)cc3)cc2C1=O", "note": "[Example 624, (S)-3-Methyl-2-(1-oxo-6-(4-(4-phenylthiazole-2-carboxamido)phenyl)isoindolin-2-yl)butanoic acid]", "inhibition at 1 µM": "> 50"},
      {"smiles": "CC(C)[C@@H](C(=O)O)N1Cc2cc(-c3ccc(NC(=O)c4ccccc4)cc3)ccc2C1=O", "note": "[Example 305, (S)-2-(5-(4-Benzamidophenyl)-1-oxoisoindolin-2-yl)-3-methylbutanoic acid]", "inhibition at 1 µM": "10 to 50"}
    ]}
  ]
}
